{"source": "patent US9895370B2", "about": "“Pharmaceutical composition for preventing or treating of cirrhosis of liver comprising G protein coupled receptor 119 ligand as an active ingredient” (DONGGUK UNIVERSITY INDUSTRY—ACADEMIC COOPERATION FOUNDATION, priority 2015, dated 2018)", "key": {"[1]": {"system": "C57BL/6 mice with liver fibrosis induced by carbon tetrachloride", "test": "carbon tetrachloride (CCl4)-induced liver fibrosis animal model", "type": "in vivo, mouse", "conditions": "for ALT / AST / D-BIL / T-BIL: blood", "description": "6-week-old male C57BL/6J mice (Joongang laboratory animal, Seoul) were acclimated in a laboratory environment for 1 week with solid feed, and randomly arranged in control groups and experimental groups according to randomized block design. Then, carbon tetrachloride (1 ml/kg) was administered to 6-week-old male C57BL/6 mice (Joongang laboratory animal, Seoul) twice a week for three weeks to induce liver fibrosis, and a GPR119 ligand (10 mg/kg) suspended in 40% PEG400 was orally administered thereto once a day for five days per week. For liver fibrosis models induced by dimethylnitrosamine (DMN), DMN (10 mg/kg) was administered to mice three times a week to induce liver fibrosis. As the control group, a vehicle-treated group was used. After termination of the experiment, the laboratory animals were fasted for 12 hours or more, and anesthetized with Zoletil to obtain blood and the liver, and the liver was washed with 0.1 M phosphate buffered saline (PBS; pH 7.4) and weighed. The blood obtained from the abdominal aorta was centrifuged in an SST tube at 3000×RPM for 20 minutes to isolate the serum.\nFor the above-mentioned laboratory animals, serum alanine transaminase (ALT), aspartate transaminase (AST), total bilirubin (T-BIL) and direct bilirubin (D-BIL) were analyzed using an automated hematology analyzer, Spectrum [(Abbott Laboratories, Abbott Park, Ill.)].\nThe liver samples obtained as described above were prepared into sections, and the tissue section was fixed with 10% buffered neutral formalin and embedded in paraffin. Afterward, the resulting section was sliced to a 4-μm thickness, and put on a slide to fix a specimen, stained with sirius red, and observed using an optical microscope.\nA predetermined amount of liver tissue was homogenized in a mortar with liquid nitrogen and a lysis buffer, and the resulting tissue solution was transferred into a new tube and then vortexed. The tissue solution was centrifuged at 14,000 rpm and 4° C. for 20 minutes, and the intermediate layer was extracted to quantify a protein by a Bradford method. 30 μg of proteins were analyzed by electrophoresis using an SDS polyacrylamide gel, and the change of protein expression was analyzed by western blot.\nTo examine improvement of liver fibrosis by the GPR119 ligand, in an animal model having liver fibrosis induced by carbon tetrachloride (CCl4), an effect of the GPR119 ligand on inhibiting liver fibrosis was observed.\nFirst, 1 ml/kg of carbon tetrachloride was intraperitoneally administered twice a week, and also orally administered with the GPR119 ligand (MBX-2982) at doses of 20 and 40 mg/kg, respectively, once a day for 5 days a week. Three weeks later, liver tissue was extracted, subjected to sirius red staining for confirming collagen production and immunohistochemical staining for confirming expression of a HSC activation marker, that is, α-SMA, and then compared with a control group and a carbon tetrachloride only-treated group."}, "[2]": {"system": "cAMP/PKA (cyclic AMP/Protein kinase A)", "test": "activation of GPR119 signaling pathway cAMP/PKA, with PKA inhibitor H-89", "type": "cell-based", "conditions": "FIG. 4a", "description": "First, when a PKA inhibitor H-89 was treated, a change in action of the GPR119 ligand was examined."}, "[3]": {"system": "p300", "test": "p300 protein and mRNA expression in LX-2", "type": "cell-based, human", "description": "(§1) A human HSC line (LX-2, Milipore, U.S.A.) was plated in a 6-well plate, and grown to confluency in DMEM supplemented with 1% penicillin-streptomycin (Hyclone, U.S.A.) and 2% fetal bovine serum (Hyclone, U.S.A.) at 37° C. in a 5% CO2 incubator. For a further experiment, the confluent HSC line was incubated in an FBS-free medium, instead of the 2% FBS-added medium.\nSodium dodecylsulfate-polyacrylamide gel electrophoresis (SDS-PAGE) was performed using a gel electrophoresis device (Mighty Small SE 250, Hoefer Scientific Instruments, San Francisco) according to the method established by the inventors. A lysed cell fraction was diluted with a sample dilution buffer [63 mM Tris (pH. 6.8), 10% glycerol, 2% SDS, 0.0013% bromophenol blue, 5% β-mercaptoethanol], and subjected to electrophoresis in an electrode buffer (15 g Tris, 72 g glycerin and 5 g SDS contained in an 1 L solution) using a 8-12% gel. After electrophoresis, the gel was transferred to a nitrocellulose membrane to transfer proteins using an electrophoresis device for transfer in a transfer buffer (25 mM Tris, 192 mM glycerin, 20% v/v methanol (pH. 8.3)] at 40 mA for 3 hours. The nitrocellulose membrane was reacted with first antibodies, reacted with horseradish peroxidase-conjugated goat anti-rabbit IgG and horseradish peroxidase-conjugated goat anti-mouse IgG as secondary antibodies for 1 hour, and visualized using an ECL chemiluminescence system (Amersham, Gaithesberg, Mass.).\nThereafter, in the present invention, the influence of the GPR119 ligand on p300 expression was observed. […] From the result, it was assumed that a decrease in the expression of the p300 protein due to the GPR119 ligand could be caused by proteasomal degradation, and therefore the expression of the p300 protein was observed using a proteasome inhibitor, which is MG132."}, "[4]": {"system": "AMP-activated protein kinase (AMPK)", "test": "AMPK activation (AMPK and ACC phosphorylation) in LX-2", "type": "cell-based, human", "conditions": "LX-2, time-dependent treatment; FIG. 4b", "description": "as §1\nSodium dodecylsulfate-polyacrylamide gel electrophoresis (SDS-PAGE) was performed using a gel electrophoresis device (Mighty Small SE 250, Hoefer Scientific Instruments, San Francisco) according to the method established by the inventors. A lysed cell fraction was diluted with a sample dilution buffer [63 mM Tris (pH. 6.8), 10% glycerol, 2% SDS, 0.0013% bromophenol blue, 5% β-mercaptoethanol], and subjected to electrophoresis in an electrode buffer (15 g Tris, 72 g glycerin and 5 g SDS contained in an 1 L solution) using a 8-12% gel. […]"}, "[5]": {"conditions": "40 mg/kg, western blot, FIG. 3c"}, "[6]": {"conditions": "LX-2 treated with ligand alone, FIG. 4h"}}}
{"smiles": "CCc1cnc(N2CCC(c3nc(COc4ccc(-n5cnnn5)cc4)cs3)CC2)nc1", "note": "[MBX-2982, 4-((4-(1H-tetrazol-1-yl)phenoxy)methyl)-2-(1-(5-ethylpyrimidin-2-yl)piperidin-4-yl)thiazole]", "values": [{"measurement": "amount of hydroxyproline", "setting": "[1]; 40 mg/kg oral, FIG. 3b", "value": "statistically significantly reduced"}, {"measurement": "expression of TGFβ protein in liver tissue", "setting": "[1]; [5]", "value": "statistically significantly inhibited"}, {"measurement": "expression of collagen I protein in liver tissue", "setting": "[1]; [5]", "value": "statistically significantly inhibited"}, {"measurement": "expression of α-SMA protein in liver tissue", "setting": "[1]; [5]", "value": "statistically significantly inhibited"}, {"measurement": "ALT", "setting": "[1]; CCl4 + MBX 20 (20 mg/kg oral)", "value": 38.55, "unit": "U/L"}, {"measurement": "AST", "setting": "[1]; CCl4 + MBX 20 (20 mg/kg oral)", "value": 94.06, "unit": "U/L"}, {"measurement": "D-BIL", "setting": "[1]; CCl4 + MBX 20 (20 mg/kg oral)", "value": 0.11, "unit": "mg/dL"}, {"measurement": "T-BIL", "setting": "[1]; CCl4 + MBX 20 (20 mg/kg oral)", "value": 0.20, "unit": "mg/dL"}, {"measurement": "ALT", "setting": "[1]; CCl4 + MBX 40 (40 mg/kg oral)", "value": 32.06, "unit": "U/L"}, {"measurement": "AST", "setting": "[1]; CCl4 + MBX 40 (40 mg/kg oral)", "value": 68.11, "unit": "U/L"}, {"measurement": "D-BIL", "setting": "[1]; CCl4 + MBX 40 (40 mg/kg oral)", "value": 0.12, "unit": "mg/dL"}, {"measurement": "T-BIL", "setting": "[1]; CCl4 + MBX 40 (40 mg/kg oral)", "value": 0.23, "unit": "mg/dL"}, {"measurement": "cAMP activation", "setting": "[2]", "value": "observed"}, {"measurement": "action on inhibiting collagen I and TGFβ expression when PKA inhibitor H-89 was treated", "setting": "[2]; with H-89", "value": "not offset"}, {"measurement": "expression of the p300 protein", "setting": "[3]; [6]", "value": "reduced depending on the concentration"}, {"measurement": "mRNA expression of p300", "setting": "[3]; [6]", "value": "no influence"}, {"measurement": "expression of the p300 protein decreased by ligand, with proteasome inhibitor MG132", "setting": "[3]; with MG132 treatment, FIG. 4i", "value": "recovered"}, {"measurement": "AMPK activation (AMPK and ACC phosphorylation)", "setting": "[4]", "value": "highly activated"}]}
